What all share (format): functional
Test [1] deals with Staphylococcus aureus. The test can be described thus: Antibacterial activity against Staphylococcus aureus assessed as bacterial growth inhibition.
Test [2] relates to Escherichia coli. As to the kind of experiment: Antibacterial activity against Escherichia coli ATCC 25922 assessed as bacterial growth inhibition by broth microdilution method. On the technique in general: Broth dilution looks for growth in wells or tubes with falling amounts of substance.
Test [3] deals with Staphylococcus aureus. As to the kind of experiment: Antibacterial activity against Staphylococcus aureus ATCC 25923 assessed as bacterial growth inhibition by broth microdilution method.
The test system of test [4] is Pseudomonas aeruginosa. The test can be described thus: Antibacterial activity against Pseudomonas aeruginosa assessed as bacterial growth inhibition by CLSI based broth microdilution method.
Test [5] concerns Staphylococcus aureus. As to the kind of experiment: Antibacterial activity against Staphylococcus aureus assessed as bacterial growth inhibition by CLSI based broth microdilution method.
In test [6] the test system is Escherichia coli. The test can be described thus: Antibacterial activity against Escherichia coli assessed as bacterial growth inhibition by CLSI based broth microdilution method.
Test [7] has as its system Staphylococcus aureus. The test can be described thus: Antibacterial activity against Staphylococcus aureus ATCC 29213 assessed as bacterial growth inhibition incubated for 24 hrs by broth microdilution method.
The subject of test [8] is Staphylococcus aureus. As to the kind of experiment: Antibacterial activity against Staphylococcus aureus clinical isolate AD3 assessed as bacterial growth inhibition incubated for 24 hrs by broth microdilution method.
In test [9] the test system is Staphylococcus aureus. The test can be described thus: Antibacterial activity against Staphylococcus aureus clinical isolate 144 assessed as bacterial growth inhibition incubated for 24 hrs by broth microdilution method.
The subject of test [10] is Staphylococcus aureus. The test can be described thus: Antibacterial activity against Staphylococcus aureus ATCC 43300 assessed as bacterial growth inhibition incubated for 24 hrs by broth microdilution method.
Test [11] deals with Staphylococcus aureus. As to the kind of experiment: Antibacterial activity against Staphylococcus aureus ATCC 29213 assessed as bacterial growth inhibition incubated for 24 hrs by CLSI based broth dilution method.
Test [12] deals with Staphylococcus aureus. The test can be described thus: Antibacterial activity against Staphylococcus aureus clinical isolate 144 assessed as bacterial growth inhibition incubated for 24 hrs by CLSI based broth dilution method.
The subject of test [13] is Staphylococcus aureus. The test can be described thus: Antibacterial activity against Staphylococcus aureus clinical isolate AD3 assessed as bacterial growth inhibition incubated for 24 hrs by CLSI based broth dilution method.
In test [14] the test system is Staphylococcus aureus. The test can be described thus: Antibacterial activity against Staphylococcus aureus ATCC 43300 assessed as bacterial growth inhibition incubated for 24 hrs by CLSI based broth dilution method.
The subject of test [15] is Staphylococcus aureus. The test can be described thus: Antibacterial activity against penicillin-resistant Staphylococcus aureus ATCC 31007 assessed as bacterial growth inhibition by standard dilution assay.
Test [16] has as its system Staphylococcus aureus. As to the kind of experiment: Antibacterial activity against methicillin-resistant Staphylococcus aureus ATCC 43300 assessed as bacterial growth inhibition by standard dilution assay.
Test [17] deals with Staphylococcus aureus. The test can be described thus: Antibacterial activity against erythromycin-susceptible Staphylococcus aureus ATCC 25923 assessed as bacterial growth inhibition by standard dilution assay.
The test system of test [18] is Staphylococcus aureus. As to the kind of experiment: Antibacterial activity against Staphylococcus aureus assessed as bacterial growth inhibition by broth microdilution method.
Test [19] deals with Pseudomonas aeruginosa. As to the kind of experiment: Antibacterial activity against Pseudomonas aeruginosa assessed as bacterial growth inhibition by broth microdilution method.
Test [20] relates to Bacillus subtilis. The test can be described thus: Antibacterial activity against Bacillus subtilis assessed as bacterial growth inhibition by broth microdilution method.
For test [21], the system named is Escherichia coli. The test can be described thus: Antibacterial activity against Escherichia coli assessed as bacterial growth inhibition by broth microdilution method.
Test [22] concerns Staphylococcus aureus. As to the kind of experiment: Antibacterial activity against Staphylococcus aureus 209p ATCC 6538P assessed as bacterial growth inhibition incubated for 1 to 2 days by serial dilution method. The note with it: time 1-2 day.

In brackets after ≈: the same amount, converted by molar mass. Bounds are passed on as bounds.

Broadly, the MIC is the lowest concentration found to suppress growth. On to `COc1cc2c(cc1OC)C[N+](Cc1cn(-c3ccc(C(C)(C)C)cc3)nn1)(Cc1cn(-c3ccc(C(C)(C)C)cc3)nn1)CC2.[Br-]`, for which, in test [1], the MIC worked out at 4 µg/mL.

In the case of `Cc1ccc2c(c1)C=C(c1nnn(Cc3cn(Cc4ccccc4)nn3)n1)CO2`, the MIC in [2] and in test [3] was 6.5 µg/mL (≈ 16.9 µM) each time.

As for `O=C(N/N=C/c1cn(-c2ccccc2)nc1-c1ccc([N+](=O)[O-])cc1)c1cccc(-n2cc(-c3ccccc3)nn2)c1`, the MIC in test [4], in test [5] and in [6] was 4 µg/mL (≈ 7.21 µM) throughout.

On to `C=C[C@]1(C)C[C@@H](OC(=O)Cn2cc(CN3CCN(c4ccc([N+](=O)[O-])cc4)CC3)nn2)[C@@]2(C)[C@@H]3C(=O)CC[C@@]3(CC[C@@H]2C)[C@@H](C)[C@@H]1O`, for which the MIC in test [7], in test [8], in test [9] and in test [10] was 0.5 µg/mL (≈ 0.771 µM) throughout.

As to `C=C[C@]1(C)C[C@@H](OC(=O)CN2CCN(C(=O)Cn3cc(CN4CCN(c5ccc(Cl)cc5)CC4)nn3)CC2)[C@@]2(C)[C@@H]3C(=O)CC[C@@]3(CC[C@@H]2C)[C@@H](C)[C@@H]1O`, the MIC in test [11], in test [12], in test [13] and in [14] was 1 µg/mL (≈ 1.31 µM) each time.

`Clc1ccc(Cn2cc(Cn3nnc(C4=Cc5cc(Cl)ccc5OC4)n3)nn2)c(Cl)c1`: the MIC in test [2] and in [3] was 6.5 µg/mL (≈ 13.7 µM) throughout.

Take `C=C[C@]1(C)C[C@@H](OC(=O)CO)C2(C)[C@H](C)CCC3(CCC(=O)[C@H]32)[C@@H](C)[C@@H]1O` (some centres undefined): the MIC in test [11], in [7], in test [12], in [13], in [8] and in test [14] was 2 µg/mL (≈ 5.28 µM) throughout. The MIC in test [9] and in test [10] was 2 µg/mL (≈ 5.28 µM) each time.

Turning to `O=C(N/N=C/c1cn(-c2ccccc2)nc1-c1ccc(Cl)cc1)c1cccc(-n2cc(-c3ccccc3)nn2)c1`, the MIC in test [4], in test [5] and in test [6] was 4 µg/mL (≈ 7.35 µM) in each case.

For the molecule `CC[C@H]1OC(=O)[C@H](C)[C@@H](O[C@H]2C[C@@](C)(OC)[C@@H](O)[C@H](C)O2)[C@H](C)[C@@H](O[C@@H]2O[C@H](C)C[C@H](N(C)C)[C@H]2O)[C@](C)(OC)C[C@@H](C)C(=O)[C@H](C)[C@@H](O)[C@]1(C)O` [CLARITHROMYCIN], the MIC in [15], in test [16] and in test [17] was greater than 128 µg/mL in each case.

With `C=C[C@]1(C)C[C@@H](OC(=O)Cn2cc(CN3CCN(c4ccccc4[N+](=O)[O-])CC3)nn2)[C@@]2(C)[C@@H]3C(=O)CC[C@@]3(CC[C@@H]2C)[C@@H](C)[C@@H]1O`, the MIC in test [7], in test [8], in test [9] and in test [10] was 0.5 µg/mL (≈ 0.771 µM) in each case.

As for `CC(=O)Nc1ccc(S(=O)(=O)n2cc(CN3CCS(=O)(=O)CC3)nn2)cc1`, the MIC in test [18], in test [19], in [20] and in [21] was 1.56 µg/mL (≈ 3.77 µM) throughout.

In the case of `COC(=O)c1cc2ccc(=O)oc2cc1-c1cn(-c2ccc(C(=O)O)cc2)nn1`, in test [22], the MIC came out at 0.31 µg/mL (≈ 0.792 µM).

These data come from ChEMBL document CHEMBL5344406, “1,2,3-Triazole-containing hybrids with potential antibacterial activity against ESKAPE pathogens” (2022).
